The record followed here is PubChem BioAssay AID1259407 (Chemical Carcinogenesis Research Information System (CCRIS), 2018).

This data set concerns CCRIS mutagenicity, Ames/micronucleus/aberration tests. Nature of the data set: CCRIS mutagenicity studies.
Where [1] appears, read: Test System: AMES SALMONELLA TYPHIMURIUM, Strain/Indicator: TA98, Metabolic Activation: NONE, Method: STANDARD PLATE.
Where [2] appears, read: Test System: AMES SALMONELLA TYPHIMURIUM, Strain/Indicator: TA100, Metabolic Activation: NONE, Method: STANDARD PLATE.
The mark [3] stands for this setting: Test System: AMES SALMONELLA TYPHIMURIUM, Strain/Indicator: TA98, Metabolic Activation: RAT, LIVER, S-9, AROCLOR 1254, Method: STANDARD PLATE.
Setting [4] is: Test System: AMES SALMONELLA TYPHIMURIUM, Strain/Indicator: TA1535, Metabolic Activation: NONE, Method: STANDARD PLATE.
Where [5] appears, read: Test System: AMES SALMONELLA TYPHIMURIUM, Strain/Indicator: TA1535, Metabolic Activation: RAT, LIVER, S-9, AROCLOR 1254, Method: STANDARD PLATE.
The mark [6] stands for this setting: Test System: AMES SALMONELLA TYPHIMURIUM, Strain/Indicator: TA1537, Metabolic Activation: NONE, Method: STANDARD PLATE.
Where [7] appears, read: Test System: AMES SALMONELLA TYPHIMURIUM, Strain/Indicator: TA1537, Metabolic Activation: RAT, LIVER, S-9, AROCLOR 1254, Method: STANDARD PLATE.
[8] abbreviates: Test System: AMES SALMONELLA TYPHIMURIUM, Strain/Indicator: TA1538, Metabolic Activation: NONE, Method: STANDARD PLATE.
The mark [9] stands for this setting: Test System: AMES SALMONELLA TYPHIMURIUM, Strain/Indicator: TA1538, Metabolic Activation: RAT, LIVER, S-9, AROCLOR 1254, Method: STANDARD PLATE.

Activity calls are given as the source filed them. The rule behind the calls is not given here.

Consider `COc1ccc(NC(=O)c2csc([N+](=O)[O-])c2)cc1`, for which the mutagenic call was “active; positive” under setting [1] and “active; positive” under setting [2].
On to `O=C1c2ccccc2C(=O)c2c1cc(O)c(O)c2O`, for which the mutagenic call runs as follows: under setting [1], “active; positive”; under setting [3], “active; positive”; under setting [4], “inactive; negative”; under setting [5], “inactive; negative”; under setting [6], “active; positive”; under setting [7], “active; positive”. Also, the mutagenic call by setting is: under setting [8], “active; positive”; under setting [9], “active; positive”; (Test System: AMES SALMONELLA TYPHIMURIUM, Strain/Indicator: TA1978, Metabolic Activation: NONE, Method: STANDARD PLATE) “inactive; negative”; (Test System: AMES SALMONELLA TYPHIMURIUM, Strain/Indicator: TA1978, Metabolic Activation: RAT, LIVER, S-9, AROCLOR 1254, Method: STANDARD PLATE) “inactive; negative”.
As to `COP(=S)(OC)Oc1nc(Cl)c(Cl)cc1Cl`, the mutagenic call runs as follows: (Test System: AMES SALMONELLA TYPHIMURIUM, Strain/Indicator: TA98, Metabolic Activation: NONE) “inactive; negative”; (Test System: AMES SALMONELLA TYPHIMURIUM, Strain/Indicator: TA98, Metabolic Activation: RAT, LIVER, S-9, AROCLOR 1254) “inactive; negative”; (Test System: AMES SALMONELLA TYPHIMURIUM, Strain/Indicator: TA100, Metabolic Activation: NONE) “inactive; negative”; (Test System: AMES SALMONELLA TYPHIMURIUM, Strain/Indicator: TA100, Metabolic Activation: RAT, LIVER, S-9, AROCLOR 1254) “inactive; negative”; (Test System: AMES SALMONELLA TYPHIMURIUM, Strain/Indicator: TA102, Metabolic Activation: NONE) “inactive; negative”; (Test System: AMES SALMONELLA TYPHIMURIUM, Strain/Indicator: TA102, Metabolic Activation: RAT, LIVER, S-9, AROCLOR 1254) “inactive; negative”. Besides, the mutagenic call (Test System: AMES SALMONELLA TYPHIMURIUM, Strain/Indicator: TA1535, Metabolic Activation: NONE) is “inactive; negative”; the mutagenic call (Test System: AMES SALMONELLA TYPHIMURIUM, Strain/Indicator: TA1535, Metabolic Activation: RAT, LIVER, S-9, AROCLOR 1254) was “inactive; negative”; the mutagenic call (Test System: AMES SALMONELLA TYPHIMURIUM, Strain/Indicator: TA1537, Metabolic Activation: NONE) is “inactive; negative”; the mutagenic call (Test System: AMES SALMONELLA TYPHIMURIUM, Strain/Indicator: TA1537, Metabolic Activation: RAT, LIVER, S-9, AROCLOR 1254) was “inactive; negative”.
For the molecule `O=C(NC(=S)NNC(=O)c1cc(O)ccc1O)c1ccccc1`, the mutagenic call (Test System: AMES SALMONELLA TYPHIMURIUM, Strain/Indicator: TA1530, Metabolic Activation: NONE, Method: STANDARD PLATE) was “active; positive”.
Take `C=C(C)C(=O)OCCCCC`: the mutagenic call runs as follows: under setting [1], “inactive; negative”; under setting [3], “inactive; negative”; (Test System: AMES SALMONELLA TYPHIMURIUM, Strain/Indicator: TA98, Metabolic Activation: RAT, LIVER, S-9, SODIUM PHENOBARBITAL, Method: STANDARD PLATE) “inactive; negative”; under setting [2], “inactive; negative”; (Test System: AMES SALMONELLA TYPHIMURIUM, Strain/Indicator: TA100, Metabolic Activation: RAT, LIVER, S-9, AROCLOR 1254, Method: STANDARD PLATE) “inactive; negative”; (Test System: AMES SALMONELLA TYPHIMURIUM, Strain/Indicator: TA100, Metabolic Activation: RAT, LIVER, S-9, SODIUM PHENOBARBITAL, Method: STANDARD PLATE) “inactive; negative”. Also, the mutagenic call is, setting by setting: under setting [4], “inactive; negative”; under setting [5], “inactive; negative”; (Test System: AMES SALMONELLA TYPHIMURIUM, Strain/Indicator: TA1535, Metabolic Activation: RAT, LIVER, S-9, SODIUM PHENOBARBITAL, Method: STANDARD PLATE) “inactive; negative”; under setting [6], “inactive; negative”; under setting [7], “inactive; negative”; (Test System: AMES SALMONELLA TYPHIMURIUM, Strain/Indicator: TA1537, Metabolic Activation: RAT, LIVER, S-9, SODIUM PHENOBARBITAL, Method: STANDARD PLATE) “inactive; negative”. Besides, the mutagenic call runs as follows: under setting [8], “inactive; negative”; under setting [9], “inactive; negative”; (Test System: AMES SALMONELLA TYPHIMURIUM, Strain/Indicator: TA1538, Metabolic Activation: RAT, LIVER, S-9, SODIUM PHENOBARBITAL, Method: STANDARD PLATE) “inactive; negative”.
For `CN(C)c1ccc(N=Nc2ccc(C=O)cc2)cc1`, the mutagenic call runs as follows: (Test System: AMES SALMONELLA TYPHIMURIUM, Strain/Indicator: TA98, Metabolic Activation: RAT, LIVER, S-9, POLYCHLORINATED BIPHENYLS, Method: PREINCUBATION) “active; positive”; (Test System: AMES SALMONELLA TYPHIMURIUM, Strain/Indicator: TA100, Metabolic Activation: RAT, LIVER, S-9, POLYCHLORINATED BIPHENYLS, Method: PREINCUBATION) “active; positive”.
`NNC(=O)NC(=O)NN`: the mutagenic call (Test System: E. COLI WP2, Strain/Indicator: WP2, Metabolic Activation: NONE, Method: STANDARD PLATE) is “active; positive”.
